Data reported in PubChem BioAssay AID256 (DTP/NCI, 2004).
Values joined by “and” are separate entries in the source; they are usually repeats but may differ in a detail not shown here. Identical values can stand only once. Toxic doses and inconclusive results are not listed. Rule for the calls: active = survival T/C of 150% or more; inactive = T/C below 125% in these data.

Tested on: CD2F1 mice, L1210 leukemia ip, survival T/C
Test: NCI In Vivo Anticancer Drug Screen. Data for tumor model L1210 Leukemia (intraperitoneal) in CD2F1 (CDF1) mice
Settings: higher = longer survival
Procedure, shortened: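 Antitumor effect is scored in animals hosting a serially transplanted tumor. Values compare compound-dosed animals against vehicle-only controls as a simple quotient.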

Measured: T/C

O=C(O)NNC(=O)NO
inactive: endpoint: mean survival time, dose: 100.0 mg/kg/injection, schedule: Q01DX009 (ip), vehicle: saline sonified 97 % of control | endpoint: mean survival time, dose: 200.0 mg/kg/injection, schedule: Q01DX009 (ip), vehicle: saline sonified 103 % of control | endpoint: mean survival time, dose: 400.0 mg/kg/injection, schedule: Q01DX009 (ip), vehicle: saline sonified 101 % of control

CCCCCCC(C)Oc1ccc(Cl)cc1Cl (centres undefined)
inactive: endpoint: mean survival time, dose: 100.0 mg/kg/injection, schedule: Q04DX002 (ip), vehicle: saline with Tween-80 90 % of control | endpoint: mean survival time, dose: 200.0 mg/kg/injection, schedule: Q04DX002 (ip), vehicle: saline with Tween-80 90 % of control | endpoint: mean survival time, dose: 400.0 mg/kg/injection, schedule: Q04DX002 (ip), vehicle: saline with Tween-80 101 % of control

O=C(O)C1CCC(C(=O)O)CC1.[NH-]C1CCCCC1[NH-].[Pt+2] (centres undefined)
inactive: endpoint: median survival time, dose: 3.12 mg/kg/injection, schedule: Q04DX003 (ip), vehicle: saline 123 % of control and 112 % of control | endpoint: median survival time, dose: 6.25 mg/kg/injection, schedule: Q04DX003 (ip), vehicle: saline 122 % of control | endpoint: median survival time, dose: 200.0 mg/kg/injection, schedule: Q04DX003 (ip), vehicle: saline 87 % of control and 89 % of control
active: endpoint: median survival time, dose: 25.0 mg/kg/injection, schedule: Q04DX003 (ip), vehicle: saline 168 % of control | endpoint: median survival time, dose: 50.0 mg/kg/injection, schedule: Q04DX003 (ip), vehicle: saline 207 % of control and 237 % of control | endpoint: median survival time, dose: 100.0 mg/kg/injection, schedule: Q04DX003 (ip), vehicle: saline 287 % of control and 365 % of control

OCC(O)C1OC(OC2CCCCC2)C(O)C(O)C1O (centres undefined)
inactive: endpoint: mean survival time, dose: 100.0 mg/kg/injection, schedule: Q01DX001 (ip), vehicle: saline 95 % of control | endpoint: mean survival time, dose: 200.0 mg/kg/injection, schedule: Q01DX001 (ip), vehicle: saline 101 % of control | endpoint: mean survival time, dose: 400.0 mg/kg/injection, schedule: Q01DX001 (ip), vehicle: saline 96 % of control

COCCNP(=S)(OC)OC
inactive: endpoint: mean survival time, dose: 100.0 mg/kg/injection, schedule: Q01DX001 (ip), vehicle: saline with Tween-80 100 % of control | endpoint: mean survival time, dose: 200.0 mg/kg/injection, schedule: Q01DX001 (ip), vehicle: saline with Tween-80 101 % of control | endpoint: mean survival time, dose: 400.0 mg/kg/injection, schedule: Q01DX001 (ip), vehicle: saline with Tween-80 106 % of control

CNc1ccc(C(=O)O)cc1OC
inactive: endpoint: mean survival time, dose: 100.0 mg/kg/injection, schedule: Q04DX003 (ip), vehicle: saline with Tween-80 100 % of control | endpoint: mean survival time, dose: 200.0 mg/kg/injection, schedule: Q04DX003 (ip), vehicle: saline with Tween-80 100 % of control | endpoint: mean survival time, dose: 400.0 mg/kg/injection, schedule: Q04DX003 (ip), vehicle: saline with Tween-80 103 % of control

O=C1c2ccccc2C(=O)c2c(O)c(N3CCC(C(=O)O)CC3)cc(O)c21
inactive: endpoint: mean survival time, dose: 12.5 mg/kg/injection, schedule: Q01DX005 (ip), vehicle: other 106 % of control | endpoint: mean survival time, dose: 25.0 mg/kg/injection, schedule: Q01DX005 (ip), vehicle: other 104 % of control | endpoint: mean survival time, dose: 50.0 mg/kg/injection, schedule: Q01DX005 (ip), vehicle: other 106 % of control | endpoint: mean survival time, dose: 100.0 mg/kg/injection, schedule: Q01DX005 (ip), vehicle: other 96 % of control | endpoint: mean survival time, dose: 200.0 mg/kg/injection, schedule: Q01DX005 (ip), vehicle: other 98 % of control

C=CCC(C(=O)OC)(C(=O)OC)c1ccc(OC)c(OC)c1
inactive: endpoint: mean survival time, dose: 75.0 mg/kg/injection, schedule: Q01DX001 (ip), vehicle: saline 100 % of control | endpoint: mean survival time, dose: 150.0 mg/kg/injection, schedule: Q01DX001 (ip), vehicle: saline 96 % of control | endpoint: mean survival time, dose: 300.0 mg/kg/injection, schedule: Q01DX001 (ip), vehicle: saline 98 % of control
